Reference: patent publication US20110230430A1, “SAPONIN EXTRACT FROM SAPONARIA SPP. AND USES THEREOF” (NATIONAL RESEARCH COUNCIL OF CANADA, priority 2008, published 2011)

Tests used:
[1] = system: MDA-MB-231 cells; test: Dual Sensor: MitoCasp Assay in MDA-MB-231 breast cancer cells; type: cell-based, human
Text: Techniques to assay enzymatic and signaling processes involved in apoptosis have been developed as standard protocols. One example of an early step in apoptosis, is the release of cytochrome C from mitochondria and the activation of caspase-3. Induction of the caspases (a series of cytosolic proteases) is one of the most consistently observed features of apoptosis. Caspases are a family of proteolytic enzymes that transmit the apoptotic signal using a proteolytic cascade. […] Caspases 3 and 7 are effector caspases, central to the caspase cascade pathways. In particular, caspase-3 plays a central role in the process. When caspases are activated, they cleave target proteins; one of the most important of these is poly-(ADP-ribose) polymerase (PARP), which is a protein located in the nucleus. Therefore, assays detecting release of cytochrome C, detecting caspase-3 activity and detecting PARP degradation are effective determinants of apoptosis. The loss of mitochondrial membrane potential is known to occur during apoptosis. To analyze mitochondrial membrane potential, a cationic dye may be used which accumulates in the mitochondria of healthy cells. Collapse of the mitochondrial membrane potential during apoptosis prevents the dye from accumulating in the mitochondria resulting in a decrease in fluorescent intensity that can be detected with flow cytometry. Dual Sensor: MitoCasp™ (Cell Technology) used herein in the Examples is an assay that measures caspase 3/7 activity and cells with decreased mitochondrial membrane potential. In this assay, caspase 3/7 activity is detected using a cell permeable carboxyfluorescein labeled caspase inhibitor, which binds covalently to active caspases 3 and 7. Cells that contain bound inhibitor are detected by an increase in fluorescence when samples are analyzed by flow cytometry.
Following centrifugation at 500×g for 5 min, cell pellets were resuspended in PBS at 3.3×10^6 cells/mL. 300 μL cell suspension was mixed with 10 μL each of 30X Mitochondria Membrane Potential Dye and 30X Caspase 3/7 detection reagent. Following incubation for 60 min under normal growth conditions, cells were washed twice with 1× wash buffer and resuspended in 0.5 mL 1× wash buffer. Samples were analyzed by flow cytometry measuring the fluorescence emissions from 515 nm to 530 nm for caspase detection, and 574 nm to 600 nm for mitochondrial membrane potential detection.
The MDA-MB-231 cell line (ATCC #HTB-26) was derived from the pleural effusion of a patient with a breast adenocarcinoma (Cailleau et al., 1974). The cells were maintained in RPMI 1640 (Gibco) supplemented with 10% fetal bovine serum (Camera), 100 U/mL penicillin, 100 μg/mL streptomycin and 0.25 μg/mL amphotericin B. Cultures were maintained in medium at 37° C. with 5% CO2 and 100% relative humidity. […]

[2] = system: MDA-MB-231 cells; test: Vybrant Apoptosis Assay Kit #2 in MDA-MB-231 cells; type: cell-based, human
Text: Another apoptotic assay is the Annexin-V detection of extracellular phosphatidlyserine (PS). Normally, phosphatidylserine is localized on the inner membrane of the plasmalemma. However, during the early stages of apoptosis, externalization of PS takes place. Annexin-V is a calcium binding protein which binds to PS and can be observed with annexin-V-FITC staining by flow cytometry (Martin, et al., 1995). Alexa Fluor® 488-labeled Annexin V, which has a high affinity for PS, is used to detect apoptotic cells by binding to PS on the outer surface of the cell. Propidium iodide staining is used concurrently to detect dead cells. When cells are analyzed by flow cytometry apoptotic cells show Annexin V staining, late apoptotic cells show PI and Annexin V staining, and dead cells show only PI staining. The Vybrant® Apoptosis Assay Kit #2 (Molecular Probes™) used herein in the Examples is an assay that measures Annexin-V positive cells.
The MDA-MB-231 cell line (ATCC #HTB-26) was derived from the pleural effusion of a patient with a breast adenocarcinoma (Cailleau et al., 1974). The cells were maintained in RPMI 1640 (Gibco) supplemented with 10% fetal bovine serum (Camera), 100 U/mL penicillin, 100 μg/mL streptomycin and 0.25 μg/mL amphotericin B. Cultures were maintained in medium at 37° C. with 5% CO2 and 100% relative humidity.
MDA-MB-231 cells were treated with PC1448 and assayed for apoptosis as previously described for PC-3 cells.

[3] = 5.0 μM saponin, 36 hours (comparison of saponins)

Segetoside I [PC1464]
Cells with caspase 3/7 activity ([1]; 1.25 μM PC1464, 35 hr): 16.7% | Cells with decreased mitochondrial membrane potential ([1]; 1.25 μM PC1464, 35 hr): 15.6% | Cells with caspase 3/7 activity ([1]; 2.5 μM PC1464, 35 hr): 32.4% | Cells with decreased mitochondrial membrane potential ([1]; 2.5 μM PC1464, 35 hr): 21.2% | Cells with caspase 3/7 activity ([1]; 3.5 μM PC1464, 12 hr): 20.0% | Cells with decreased mitochondrial membrane potential ([1]; 3.5 μM PC1464, 12 hr): 19.9% | Cells with caspase 3/7 activity ([1]; 3.5 μM PC1464, 24 hr): 27.5% | Cells with decreased mitochondrial membrane potential ([1]; 3.5 μM PC1464, 24 hr): 51.5% | Increase in number of cells with caspase 3/7 activity ([1]; 3.5 μM PC1464, 36 hours): two fold | Increase in number of cells with reduced mitochondrial membrane potential ([1]; 3.5 μM PC1464, 36 hours): eight fold | Cells with caspase 3/7 activity ([1]; 3.5 μM PC1464, 36 hr): 29.1% | Cells with decreased mitochondrial membrane potential ([1]; 3.5 μM PC1464, 36 hr): 52.0% | Cells with caspase 3/7 activity ([1]; 5.0 μM PC1464, 35 hr): 53.0% | Cells with decreased mitochondrial membrane potential ([1]; 5.0 μM PC1464, 35 hr): 32.8% | Cells with caspase 3/7 activity [1, 3]: 39.9% | Cells with decreased mitochondrial membrane potential [1, 3]: 13.7% | Cells with caspase 3/7 activity ([1]; 10.0 μM PC1464, 35 hr): 55.7% | Cells with decreased mitochondrial membrane potential ([1]; 10.0 μM PC1464, 35 hr): 39.6% | Concentration of greatest effect on apoptosis ([1]; 35 hours): above 5 μM | Induction of apoptosis at concentrations as low as ([1]; 35 hours): 2.5 µM | Annexin-V positive cells ([2]; 7 μM PC1464, 12 hr): 28.8% | Annexin-V positive cells ([2]; 7 μM PC1464, 24 hr): 39.7% | Increase in Annexin V positive cells vs untreated ([2]; 7 μM PC1464, 36 hour): 3 fold | Annexin-V positive cells ([2]; 7 μM PC1464, 36 hr): 49.3%

Segetoside H [PC1448]
Cells with caspase 3/7 activity ([1]; 2.5 μM PC1448, 36 hr): 19.3% | Cells with decreased mitochondrial membrane potential ([1]; 2.5 μM PC1448, 36 hr): 9.9% | Cells with caspase 3/7 activity ([1]; 5.0 μM PC1448, 36 hr): 25.8% | Cells with decreased mitochondrial membrane potential ([1]; 5.0 μM PC1448, 36 hr): 12.6% | Cells with caspase 3/7 activity [1, 3]: 12.8% | Cells with decreased mitochondrial membrane potential [1, 3]: 5.3% | Cells with caspase 3/7 activity ([1]; 10.0 μM PC1448, 36 hr): 40.0% | Cells with decreased mitochondrial membrane potential ([1]; 10.0 μM PC1448, 36 hr): 17.9% | Cells with caspase 3/7 activity ([1]; 15.0 μM PC1448, 36 hr): 40.9% | Cells with decreased mitochondrial membrane potential ([1]; 15.0 μM PC1448, 36 hr): 20.8% | Concentration of greatest effect on apoptosis ([1]; 36 hours): above 10 μM | Induction of apoptosis at concentrations as low as ([1]; 36 hours): 5.0 µM | Increase in Annexin V positive cells vs untreated ([2]; 14 μM PC1448, 12 hours): 2.7 fold | Annexin-V positive cells ([2]; 14 μM PC1448, 12 hr): 46.3% | Annexin-V positive cells ([2]; 14 μM PC1448, 24 hr): 37.9% | Annexin-V positive cells ([2]; 14 μM PC1448, 48 hr): 37.9%
